Measured values: the NIST ThermoML archive (doi:10.1021/je300086w)
± gives the expanded uncertainty stated by the source.

Columns and labels:
[1] = for Normal melting temperature: Crystal, AC calorimetry; for viscosity / mass density: 101.33 kPa, Liquid; for mass density: Vibrating tube method
[2] = refractive index (Na D-line) (dimensionless); details: 101.33 kPa, Liquid, Standard Abbe refractometry

CC(=O)OCC[N+](C)(C)C [2-acetoxy-N,N,N-trimethylethanaminium]
Normal melting temperature [1]: 72.0 ± 1 °C

CCCCCC(=O)[O-].C[N+](C)(C)CCO [2-hydroxy-N,N,N-trimethylethanaminium hexanoate]
refractive index ([2]; 293.15 K): 1.4726 ± 0.0004
refractive index ([2]; 298.15 K): 1.4709 ± 0.0004
refractive index ([2]; 303.15 K): 1.4692 ± 0.0004
refractive index ([2]; 308.15 K): 1.4675 ± 0.0004
refractive index ([2]; 313.15 K): 1.4658 ± 0.0004
refractive index ([2]; 318.15 K): 1.464 ± 0.0004
refractive index ([2]; 323.15 K): 1.4624 ± 0.0004
refractive index ([2]; 328.15 K): 1.4607 ± 0.0004
refractive index ([2]; 333.15 K): 1.459 ± 0.0004
viscosity ([1]; 293.15 K): 929.2 ± 73 mPa·s
mass density ([1]; 293.15 K): 1018.8 ± 1 kg/m3
viscosity ([1]; 298.15 K): 710.7 ± 51 mPa·s
mass density ([1]; 298.15 K): 1015.7 ± 1 kg/m3
viscosity ([1]; 303.15 K): 530.4 ± 34 mPa·s
mass density ([1]; 303.15 K): 1012.5 ± 1 kg/m3
viscosity ([1]; 308.15 K): 400.3 ± 23 mPa·s
mass density ([1]; 308.15 K): 1009.8 ± 1 kg/m3
viscosity ([1]; 313.15 K): 298 ± 14 mPa·s
mass density ([1]; 313.15 K): 1006.8 ± 1 kg/m3
viscosity ([1]; 318.15 K): 225.9 ± 9.3 mPa·s
mass density ([1]; 318.15 K): 1003.9 ± 1 kg/m3
viscosity ([1]; 323.15 K): 175.3 ± 6 mPa·s
mass density ([1]; 323.15 K): 1001.3 ± 1 kg/m3
viscosity ([1]; 328.15 K): 140.3 ± 4 mPa·s
mass density ([1]; 328.15 K): 998.4 ± 1 kg/m3
viscosity ([1]; 333.15 K): 110.9 ± 2.5 mPa·s
mass density ([1]; 333.15 K): 995.5 ± 1 kg/m3
viscosity ([1]; 338.15 K): 89.7 ± 1.5 mPa·s
mass density ([1]; 338.15 K): 992.6 ± 1 kg/m3
viscosity ([1]; 343.15 K): 73.7 ± 0.9 mPa·s
mass density ([1]; 343.15 K): 989.7 ± 1 kg/m3
viscosity ([1]; 348.15 K): 60.9 ± 0.6 mPa·s
mass density ([1]; 348.15 K): 986.8 ± 1 kg/m3
viscosity ([1]; 353.15 K): 51 ± 0.4 mPa·s
mass density ([1]; 353.15 K): 984 ± 1 kg/m3

CCCC(=O)[O-].C[N+](C)(C)CCO [choline butanoate]
refractive index ([2]; 293.15 K): 1.4716 ± 0.0004
refractive index ([2]; 298.15 K): 1.47 ± 0.0004
refractive index ([2]; 303.15 K): 1.4683 ± 0.0004
refractive index ([2]; 308.15 K): 1.4667 ± 0.0004
refractive index ([2]; 313.15 K): 1.465 ± 0.0004
refractive index ([2]; 318.15 K): 1.4633 ± 0.0004
refractive index ([2]; 323.15 K): 1.4617 ± 0.0004
refractive index ([2]; 328.15 K): 1.46 ± 0.0004
refractive index ([2]; 333.15 K): 1.4585 ± 0.0004
viscosity ([1]; 293.15 K): 833.1 ± 63 mPa·s
mass density ([1]; 293.15 K): 1049.5 ± 1 kg/m3
viscosity ([1]; 298.15 K): 630.6 ± 43 mPa·s
mass density ([1]; 298.15 K): 1046.5 ± 1 kg/m3
viscosity ([1]; 303.15 K): 459.3 ± 28 mPa·s
mass density ([1]; 303.15 K): 1043.4 ± 1 kg/m3
viscosity ([1]; 308.15 K): 344.2 ± 18 mPa·s
mass density ([1]; 308.15 K): 1040.5 ± 1 kg/m3
viscosity ([1]; 313.15 K): 254 ± 11 mPa·s
mass density ([1]; 313.15 K): 1037.6 ± 1 kg/m3
viscosity ([1]; 318.15 K): 193.8 ± 7.2 mPa·s
mass density ([1]; 318.15 K): 1034.6 ± 1 kg/m3
viscosity ([1]; 323.15 K): 150.2 ± 4.5 mPa·s
mass density ([1]; 323.15 K): 1031.9 ± 1 kg/m3
viscosity ([1]; 328.15 K): 118.2 ± 2.8 mPa·s
mass density ([1]; 328.15 K): 1029 ± 1 kg/m3
viscosity ([1]; 333.15 K): 94.3 ± 1.7 mPa·s
mass density ([1]; 333.15 K): 1026.2 ± 1 kg/m3
viscosity ([1]; 338.15 K): 76.1 ± 1 mPa·s
mass density ([1]; 338.15 K): 1023.4 ± 1 kg/m3
viscosity ([1]; 343.15 K): 62.2 ± 0.6 mPa·s
mass density ([1]; 343.15 K): 1020.5 ± 1 kg/m3
viscosity ([1]; 348.15 K): 51.4 ± 0.4 mPa·s
mass density ([1]; 348.15 K): 1017.2 ± 1 kg/m3
viscosity ([1]; 353.15 K): 42.9 ± 0.4 mPa·s
mass density ([1]; 353.15 K): 1014.5 ± 1 kg/m3

CC(C)(C)C(=O)[O-].C[N+](C)(C)CCO [choline pivalate]
Normal melting temperature [1]: 96.0 ± 1 °C

CCC(=O)[O-].C[N+](C)(C)CCO [cholinium propanoate]
refractive index ([2]; 293.15 K): 1.4705 ± 0.0004
refractive index ([2]; 298.15 K): 1.4686 ± 0.0004
refractive index ([2]; 303.15 K): 1.4668 ± 0.0004
refractive index ([2]; 308.15 K): 1.465 ± 0.0004
refractive index ([2]; 313.15 K): 1.4631 ± 0.0004
refractive index ([2]; 318.15 K): 1.4611 ± 0.0004
refractive index ([2]; 323.15 K): 1.4592 ± 0.0004
refractive index ([2]; 328.15 K): 1.4573 ± 0.0004
refractive index ([2]; 333.15 K): 1.4555 ± 0.0004
viscosity ([1]; 293.15 K): 395.8 ± 22 mPa·s
mass density ([1]; 293.15 K): 1074.6 ± 1 kg/m3
viscosity ([1]; 298.15 K): 290.2 ± 14 mPa·s
mass density ([1]; 298.15 K): 1071.5 ± 1 kg/m3
viscosity ([1]; 303.15 K): 215.6 ± 8.6 mPa·s
mass density ([1]; 303.15 K): 1068.6 ± 1 kg/m3
viscosity ([1]; 308.15 K): 163.2 ± 5.3 mPa·s
mass density ([1]; 308.15 K): 1065.7 ± 1 kg/m3
viscosity ([1]; 313.15 K): 125.8 ± 3.2 mPa·s
mass density ([1]; 313.15 K): 1062.8 ± 1 kg/m3
viscosity ([1]; 318.15 K): 98.5 ± 1.9 mPa·s
mass density ([1]; 318.15 K): 1060 ± 1 kg/m3
viscosity ([1]; 323.15 K): 78.3 ± 1.1 mPa·s
mass density ([1]; 323.15 K): 1057.2 ± 1 kg/m3
viscosity ([1]; 328.15 K): 63 ± 0.6 mPa·s
mass density ([1]; 328.15 K): 1054.3 ± 1 kg/m3
viscosity ([1]; 333.15 K): 51.4 ± 0.4 mPa·s
mass density ([1]; 333.15 K): 1051.4 ± 1 kg/m3
viscosity ([1]; 338.15 K): 42.4 ± 0.4 mPa·s
mass density ([1]; 338.15 K): 1048.6 ± 1 kg/m3
viscosity ([1]; 343.15 K): 35.4 ± 0.4 mPa·s
mass density ([1]; 343.15 K): 1045.8 ± 1 kg/m3
viscosity ([1]; 348.15 K): 29.8 ± 0.3 mPa·s
mass density ([1]; 348.15 K): 1042.9 ± 1 kg/m3
viscosity ([1]; 353.15 K): 25.4 ± 0.3 mPa·s
mass density ([1]; 353.15 K): 1040.1 ± 1 kg/m3
